Data reported in patent US8207135B2, “Compositions for and methods of enhancing the immune response to antigens” (Wittycell, priority 2007, dated 2012).

What was measured:
IFNγ = experiment: in vivo IFNγ release in sera by ELISA 24 hours after inoculation; parameters: species or system C57BL/6 mice; details: Quantikine kit, FIG. 4
Protocol: To test the ability of the adjuvant test compounds to stimulate in vivo cytokine release, C57BL/6 mice were administered the compounds at different concentrations intravenously and the production of IFNγ in sera was measured 24 hours later by ELISA. Groups of 3 mice were inoculated intravenously (tail vein) on day 0 as follows: • Group 1: 100 μl of PBS alone • Group 2: 1 μg of αGalCer in 100 μl of PBS • Group 3: 100 ng of αGalCer in 100 μl of PBS • Group 4: 1 ng of αGalCer in 100 μl of PBS • Group 5: 0.1 ng of αGalCer in 100 μl of PBS • Group 6: 100 ng of αGalCer and 100 μg of Ova in 100 μl of PBS • Group 7: 1 μg of PBS-57 in 100 μl of PBS • Group 8: 100 ng of PBS-57 in 100 μl of PBS • Group 9: 1 ng of PBS-57 in 100 μl of PBS • Group 10: 0.1 ng of PBS-57 in 100 μl of PBS • Group 11: 100 ng of PBS-57 and 400 μg of Ova into 100 μl of PBS • Group 12: 1 μg of PBS-14 in 100 μl of PBS • Group 13: 100 ng of PBS-14 in 100 μl of PBS • Group 14: 1 ng of PBS-14 in 100 μl of PBS • Group 15: 0.1 ng of PBS-14 in 100 μl of PBS • Group 16: 100 ng of PBS-14 and 400 μg of Ova in 100 μl of PBS • Group 17: 1 μg of PBS-96 in 100 μl of PBS • Group 18: 100 ng of PBS-96 in 100 μl of PBS • Group 19: 1 ng of PBS-96 in 100 μl of PBS • Group 20: 0.1 ng of PBS-96 in 100 μl of PBS • Group 21: 100 ng of PBS-96 and 400 μg of Ova in 100 μl of PBS. 24 hours after inoculation, blood samples were collected from the mice and IFNγ levels were detected by ELISA kit. Two ELISA kits were used, Quantikine mouse IFNγ (RD systems) was used to test all samples and ELISA mIFNγ (Diaclone) was used to test group 1, 2, 3, 6, 7, 8, 11, 12, 13, 16, 17, 18 and 21. All sera were diluted before use in ELISA as follows:
Results are expressed as IFNγ concentration (pg/ml) in sera and take into account the dilution factor. FIG. 4 depicts results using the Quantikine mouse IFNγ kit by RD systems. FIG. 4A depicts results of IFNγ levels for mice immunized with PBS-57, FIG. 4B depicts results of IFNγ levels for mice immunized with PBS-14, FIG. 4C depicts results of IFNγ levels for mice immunized with PBS-96 and FIG. 4D depicts results of IFNγ levels for mice immunized with αGalCer. At 0.1 ng, all adjuvant candidates induce cytokine release, but mice immunized with αGalCer produced three- or four-fold less IFNγ than mice immunized with PBS-57, PBS-14 or PBS-96 (1540.57±397.53 pg/ml, 4398.05±880.86 pg/ml, 6669.31±1231.82 pg/ml, 5823.33±720.69 pg/ml respectively).
Another set of mice were used to compare the ability of adjuvant compounds to stimulate in vivo cytokine release by the method described above. Five groups of C57BL/6 mice were administered 100 ng of PBS-57, PBS-14, PBS-96, or PBS-11 in 100 μl PBS or 100 μl PBS alone intravenously. The production of IFNγ in sera was measured 24 hours later by ELISA. FIG. 5 depicts results for mice immunized with 100 ng of PBS-11, PBS-96, PBS-14 and PBS-57.

OVA specific IgG2a = experiment: OVA-specific IgG2a ELISA after intramuscular immunization; format: in vivo, mouse; details: FIG. 12; IM, 50 μg OVA with 100 ng adjuvant, 14 days post-injection
Protocol: (§1) Mice (6 per group) were injected intramuscularly with 50 μg of OVA either alone or in combination with 100 ng of the indicated adjuvants (Freund's adjuvant was used as a positive control) as follows: • Group 1: […] of Ova with CFA/IFA (Positive control) • Group 2: 50 μg of Ova • Group 3: 50 μg of Ova and 100 ng of αGalCer • Group 4: 50 μg of Ova and 100 ng of PBS-11 • Group 5: 50 μg of Ova and 100 ng of PBS-14 • Group 6: 50 μg of Ova and 100 ng of PBS-57 • Group 7: 50 μg of Ova and 100 ng of PBS-96 At 14 days post-injection, blood samples were collected and ELISAs for IgG1 and IgG2a were performed using mouse monoclonal antibodies specific for OVA isotype IgG1 or IgG2a. The results are shown as the titer of the antibody in peripheral blood in ng/ml. The results for IgG1 are depicted in FIG. 11 and those for IgG2a are depicted in FIG. 12.

[1] = tested on: Ova-specific target cells; experiment: in vivo cytotoxic specific cell lysis assay (CD8+ T cell response) in immunized mice; parameters: species or system mouse
OVA-specific IgG1 = OVA-specific IgG1 ELISA after intramuscular immunization; format: in vivo, mouse; details: FIG. 11; IM, 50 μg OVA with 100 ng adjuvant, 14 days post-injection
Protocol: as §1

[2] = tested on: CD8+ T cells responsive to OVA; experiment: SIINFEKL pentamer assay of OVA-specific CD8+ T cells (FACS); format: in vivo, mouse; details: IM, days 0 and 14, blood day 21
Protocol: To verify the results obtained using the in vivo cytotoxicity assay described in the Examples above, similar experiments were performed and CD8+ T cell activation was determined by measuring the percentage of OVA-specific CD8+ T cells using a pentamer assay. Briefly, mice were injected intramuscularly with the indicated amounts of OVA and test adjuvant compound at either 1 μg or 100 ng per mouse, respectively on day 0 as follows:
Experiment A: • Group 1: 100 μl of PBS; • Group 2: 50 μg of Ova into 100 μl PBS; • Group 3: 50 μg of Ova with 1 μg αGalCer; • Group 4: 50 μg of Ova with 1 μg PBS-11 • Group 5: 50 μg of Ova with 1 μg PBS-14 • Group 6: 50 μg of Ova with 1 μg PBS-57 • Group 7: 50 μg of Ova with 1 μg PBS-96
Experiment B: • Group 1: 100 μl of PBS; • Group 2: 50 μg of Ova into 100 μl PBS; • Group 3: 50 μg of Ova with 100 ng αGalCer; • Group 4: 50 μg of Ova with 100 ng PBS-11 • Group 5: 50 μg of Ova with 100 ng PBS-14 • Group 6: 50 μg of Ova with 100 ng PBS-57 • Group 7: 50 μg of Ova with 100 ng PBS-96 A second injection was administered to the mice on day 14 and blood was collected from the mice on day 21. The lymphocytes were collected and analyzed by FACS analysis using H-2 K^b SIINFEKL pentamer and CD8 antibody to detect CD8+ T cells responsive to OVA.

CCCCCCCCCCCCCCCCCCCCCCCC(=O)N[C@@H](CO[C@H]1O[C@H](CNC(C)=O)[C@H](O)[C@H](O)[C@H]1O)[C@H](O)[C@H](O)CCCCCCCCCCCCCC [PBS-96]
IFNγ concentration in sera (IFNγ; 0.1 ng IV): 5823.33 ± 720.69 pg/mL | IFNγ concentration in sera (IFNγ; 1 ng IV): 6271.95 ± 3737.53 pg/mL | IFNγ concentration in sera (IFNγ; 100 ng IV): 19679.89 ± 1443.48 pg/mL | IFNγ concentration in sera (IFNγ; 1 μg IV): 17720.11 ± 2869.97 pg/mL | OVA specific IgG2a titer in peripheral blood (OVA specific IgG2a): about as well as Freund's adjuvant | specific lysis of Ova-specific target cells in blood ([1]; Example 1, FIG. 1, IV, 1 μg adjuvant with 50 μg Ova, day 11): resulted in cytotoxic lysis of Ova-specific target cells | average Ova-specific cytotoxic response ([1]; Example 2, FIG. 2, IV, 400 μg Ova with or without 1 μg adjuvant, day 11 blood): 89.2±10.3% | average OVA-specific cytotoxic response ([1]; Example 2, FIG. 3, IM, 400 μg Ova with or without 1 μg adjuvant, day 11 blood): 50.29±42.6% | average Ova-specific cell lysis ([1]; Example 4, FIG. 6, IV, 400 μg Ova with or without 1 μg adjuvant (PBS-57 new formulation), day 11 blood): 89.2±10.3% | enhancement of the CD8+ T cell response (specific lysis) at low doses ([1]; Example 5 Experiments A and B, FIGS. 7 and 8, 50 μg OVA with 100 ng or 10 ng adjuvant intramuscularly): unexpectedly better than other adjuvants | OVA-specific IgG1 titer in peripheral blood (OVA-specific IgG1): able to elicit a robust IgG1 titer | percentage of OVA specific CD8+ T cells ([2]; Example 6 Experiment A, FIG. 9, 50 μg Ova with 1 μg adjuvant): enhanced the percentage of OVA specific CD8+ T cells | percentage of OVA specific CD8+ T cells ([2]; Example 6 Experiment B, FIG. 10, 50 μg Ova with 100 ng adjuvant): surprisingly much better at enhancing the CD8+ T cell response
